Source: patent US8993757B2, “N-piperidin-4-yl derivatives” (Merck Sharp & Dohme B.V., priority 2011, dated 2015)
Several values for one entry are separate records, joined by “and”; a condition that tells them apart may be missing. Equal entries are not always repeated.

Target: T1, human FSH receptor (Homo sapiens, UniProt P23945)
T1 construct: expressed in transfected cells; host or cells: CHO cells, cotransfected with a CRE/promotor firefly luciferase reporter
T1 sequence (P23945 18-695): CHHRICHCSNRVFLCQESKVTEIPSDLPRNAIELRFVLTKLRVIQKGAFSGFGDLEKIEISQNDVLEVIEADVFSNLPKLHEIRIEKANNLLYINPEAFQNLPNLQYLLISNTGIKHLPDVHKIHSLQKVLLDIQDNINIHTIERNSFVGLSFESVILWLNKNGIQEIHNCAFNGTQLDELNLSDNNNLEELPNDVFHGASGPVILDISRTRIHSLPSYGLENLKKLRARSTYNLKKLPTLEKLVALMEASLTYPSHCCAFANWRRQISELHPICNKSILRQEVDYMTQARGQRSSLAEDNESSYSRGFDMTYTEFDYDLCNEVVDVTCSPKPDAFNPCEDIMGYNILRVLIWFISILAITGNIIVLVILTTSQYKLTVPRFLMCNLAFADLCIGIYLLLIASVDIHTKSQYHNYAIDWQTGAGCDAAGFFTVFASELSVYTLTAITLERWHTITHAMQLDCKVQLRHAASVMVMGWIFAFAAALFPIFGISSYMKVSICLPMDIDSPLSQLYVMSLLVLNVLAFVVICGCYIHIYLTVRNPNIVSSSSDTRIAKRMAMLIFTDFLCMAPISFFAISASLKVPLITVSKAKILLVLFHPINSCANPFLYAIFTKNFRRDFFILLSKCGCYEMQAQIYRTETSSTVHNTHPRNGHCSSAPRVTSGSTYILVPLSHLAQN
Test: Antagonistic activity at the human FSH receptor expressed in CHO cells (CRE-luciferase reporter)
Format: cell-based
Details: CHO cells stably transfected with human FSH receptor and CRE/firefly luciferase reporter; 4 hours incubation; read-out: pIC50 (negative logarithm of the IC50 value) (converted)
Experimental: The FSHR antagonists of the invention have pIC50 values higher than 6 in said assay. The preferred compounds of the invention have pIC50 values higher than 8.
Antagonistic activity of the compounds at the human FSH receptor was determined in Chinese Hamster Ovary (CHO) cells stably transfected with the human FSH receptor and cotransfected with a cAMP responsive element (CRE)/promotor directing the expression of a firefly luciferase reporter gene. […] The cells (7,500 cells/well of a 384 well plate) were incubated in Dulbecco′ minimal essential F12 modified medium (Invitrogen), supplemented with 1 μg/ml bovine insulin, 5 μg/ml human apo-transferrin, 100 U/ml penicillin G and 100 μg/ml streptomycin with the test compounds (concentration between 0.316 nM and 10.0 μM) in duplicate together with […] (which, at this concentration in the absence of test compound, induces 80% of the maximal luciferase stimulation) in a humidified atmosphere (95%) at 5-7% CO2 and 37° C. The final concentration of DMSO was 1%. After 4 hours of incubation, plates were allowed to adjust to room temperature for 1 hour. Then, SteadyLite (Perkin Elmer) solution was added to the wells and cells were allowed to lyse for at least 1 hour at room temperature. Subsequently, luciferase activity was measured in a luminescence counter. The signal is expressed as counts per second (cps). The IC50 (concentration of test compound causing half-maximal (50%) inhibition of the maximally attainable inhibition of the luciferase stimulation by the compound) and efficacy of the compounds were determined using the software program MathIQ (version 2.3, ID Business Solutions Limited).

IC50 | SMILES
10 to 100 nM | COc1cc(OCC2CC2)cc(C(=O)NCC2CCN(c3ncnc(-c4cccc(C(=O)NCC(F)F)c4)n3)CC2)c1 [Example 32G, 3-(cyclopropylmethoxy)-N-((1-(4-(3-(2,2-difluoroethylcarbamoyl)phenyl)-1,3,5-triazin-2-yl)piperidin-4-yl)methyl)-5-methoxybenzamide]
10 to 100 nM and < 10 nM | COc1cc(OCC2CC2)cc(C(=O)NCC2CCN(c3ccnc(-c4cccc(-n5cc(C)cn5)c4)n3)CC2)c1 [Example 33A, 3-(cyclopropylmethoxy)-5-methoxy-N-((1-(2-(3-(4-methyl-1H-pyrazol-1-yl)phenyl)pyrimidin-4-yl)piperidin-4-yl)methyl)benzamide]
< 10 nM | COc1cc(OCC2CC2)cc(C(=O)NCC2CCN(c3ccnc(-c4cccc(-n5cccn5)c4)n3)CC2)c1 [Example 15A, N-((1-(2-(3-(1H-pyrazol-1-yl)phenyl)pyrimidin-4-yl)piperidin-4-yl)methyl)-3-(cyclopropylmethoxy)-5-methoxybenzamide]
10 to 100 nM | COc1cc(OC)cc(C(=O)NCC2CCN(c3ccnc(-c4cccc(-c5ccn[nH]5)c4)n3)CC2)c1 [Example 18, N-((1-(2-(3-(1H-pyrazol-5-yl)phenyl)pyrimidin-4-yl)piperidin-4-yl)methyl)-3,5-dimethoxybenzamide]
< 10 nM | COc1cc(NC(=O)C2CCN(c3ccnc(-c4cccc(-n5cccn5)c4)n3)CC2)cc(OCc2cc(C)on2)c1 [Example 43, 1-(2-(3-(1H-pyrazol-1-yl)phenyl)pyrimidin-4-yl)-N-(3-methoxy-5-((5-methylisoxazol-3-yl)methoxy)phenyl)piperidine-4-carboxamide]
10 to 100 nM | COc1cc(OCC2CC2)cc(C(=O)NC2CC23CCN(c2ccnc(-c4cccc(-n5cccn5)c4)n2)CC3)c1 (centres unmarked) [Example 35, N-(6-(2-(3-(1H-pyrazol-1-yl)phenyl)pyrimidin-4-yl)-6-azaspiro[2.5]octan-1-yl)-3-(cyclopropylmethoxy)-5-methoxybenzamide]
< 10 nM | COc1cc(OCc2cc(C)on2)cc(C(=O)NCC2CCN(c3ccnc(-c4cccc(-n5cccn5)c4)n3)CC2)c1 [Example 15B, N-((1-(2-(3-(1H-pyrazol-1-yl)phenyl)pyrimidin-4-yl)piperidin-4-yl)methyl)-3-methoxy-5-((5-methylisoxazol-3-yl)methoxy)benzamide]
10 to 100 nM | CNC(=O)COc1cc(OC)cc(C(=O)NCC2CCN(c3ncnc(-c4cccc(-n5cccn5)c4)n3)CC2)c1 [Example 17D, N-((1-(4-(3-(1H-pyrazol-1-yl)phenyl)-1,3,5-triazin-2-yl)piperidin-4-yl)methyl)-3-methoxy-5-(2-(methylamino)-2-oxoethoxy)benzamide]
< 10 nM | COc1cc(NC(=O)C2CCN(c3ccnc(-c4cccc(-n5cccn5)c4)n3)CC2)cc(OC)c1 [Example 51, 1-(2-(3-(1H-pyrazol-1-yl)phenyl)pyrimidin-4-yl)-N-(3,5-dimethoxyphenyl) piperidine-4-carboxamide]
10 to 100 nM | COc1cc(OCC(F)(F)F)cc(C(=O)NCC2CCN(c3ncnc(-c4cccc(C#N)c4)n3)CC2)c1 [Example 30C, N-((1-(4-(3-cyanophenyl)-1,3,5-triazin-2-yl)piperidin-4-yl)methyl)-3-methoxy-5-(2,2,2-trifluoroethoxy)benzamide]
10 to 100 nM | COc1cc(OCc2ccoc2)cc(C(=O)NCC2CCN(c3ncnc(-c4cccc(-n5cccn5)c4)n3)CC2)c1 [Example 17C]
10 to 100 nM | COc1cc(OCC2CC2)cc(C(=O)NCC2CCN(c3ccnc(-c4ccc5oncc5c4)n3)CC2)c1 [Example 33B, N-((1-(2-(benzo[d]isoxazol-5-yl)pyrimidin-4-yl)piperidin-4-yl)methyl)-3-(cyclopropylmethoxy)-5-methoxybenzamide]
10 to 100 nM | COc1cc(OCC2CC2)cc(C(=O)NCC2CCN(c3ccnc(-c4ccc(F)c(C#N)c4)n3)CC2)c1 [Example 33C, N-((1-(2-(3-cyano-4-fluorophenyl)pyrimidin-4-yl)piperidin-4-yl)methyl)-3-(cyclopropylmethoxy)-5-methoxybenzamide]
10 to 100 nM | COCCOc1cc(OC)cc(C(=O)NCC2CCN(c3ccnc(-c4cccc(-n5cccn5)c4)n3)CC2)c1 [Example 15D, N-((1-(2-(3-(1H-pyrazol-1-yl)phenyl)pyrimidin-4-yl)piperidin-4-yl)methyl)-3-methoxy-5-(2-methoxyethoxy)benzamide]
10 to 100 nM | COc1cc(OCc2ccccc2)cc(C(=O)NCC2CCN(c3ccnc(-c4cccc(-n5cccn5)c4)n3)CC2)c1 [Example 11, N-((1-(2-(3-(1H-pyrazol-1-yl)phenyl)pyrimidin-4-yl)piperidin-4-yl)methyl)-3-(benzoxy)-5-methoxybenzamide]
< 10 nM | COc1cc(OCC2CC2)cc(C(=O)NCC2CCN(c3ncnc(-c4cccc(-n5cccn5)c4)n3)CC2)c1 [Example 17A, N-((1-(4-(3-(1H-pyrazol-1-yl)phenyl)-1,3,5-triazin-2-yl)piperidin-4-yl)methyl)-3-(cyclopropylmethoxy)-5-methoxybenzamide]
10 to 100 nM | COc1cc(NC(=O)C2CCN(c3ccnc(-c4cccc(-n5cccn5)c4)n3)CC2)cc(OCC2CCCCC2)c1 [Example 45, 1-(2-(3-(1H-pyrazol-1-yl)phenyl)pyrimidin-4-yl)-N-(3-(cyclohexylmethoxy)-5-methoxyphenyl)piperidine-4-carboxamide]
< 10 nM | COc1cc(OCC2CC2)cc(C(=O)NCC2CCN(c3ncnc(-c4cccc(-c5ncc[nH]5)c4)n3)CC2)c1 [Example 40, N-((1-(4-(3-(1H-imidazol-2-yl)phenyl)-1,3,5-triazin-2-yl)piperidin-4-yl)methyl)-3-(cyclopropylmethoxy)-5-methoxybenzamide 2,2,2-trifluoroacetate]
< 10 nM | COc1cc(OCC2CC2)cc(C(=O)NCC2CCN(c3nc(-c4cccc(-c5ccn[nH]5)c4)ncc3F)CC2)c1 [Example 19C, N-((1-(2-(3-(1H-pyrazol-5-yl)phenyl)-5-fluoropyrimidin-4-yl)piperidin-4-yl)methyl)-3-(cyclopropylmethoxy)-5-methoxybenzamide]
10 to 100 nM | COCCCOc1cc(OC)cc(C(=O)NCC2CCN(c3nc(-c4cccc(-c5cc[nH]n5)c4)ncc3F)CC2)c1 [Example 23A, N-((1-(2-(3-(1H-pyrazol-3-yl)phenyl)-5-fluoropyrimidin-4-yl)piperidin-4-yl)methyl)-3-methoxy-5-(3-methoxypropoxy)benzamide]
10 to 100 nM | COc1cc(OCC2CC2)cc(C(=O)NCC2CCN(c3nc(-c4cccc(-n5ccnn5)c4)ncc3F)CC2)c1 [Example 28C, N-((1-(2-(3-(1H-1,2,3-triazol-1-yl)phenyl)-5-fluoropyrimidin-4-yl)piperidin-4-yl)methyl)-3-(cyclopropylmethoxy)-5-methoxybenzamide]
10 to 100 nM | COc1cc(OCCO)cc(C(=O)NCC2CCN(c3nc(-c4cccc(-c5cc[nH]n5)c4)ncc3F)CC2)c1 [Example 22, N-((1-(2-(3-(1H-pyrazol-3-yl)phenyl)-5-fluoropyrimidin-4-yl)piperidin-4-yl)methyl)-3-(2-hydroxyethoxy)-5-methoxybenzamide]
10 to 100 nM | COc1cc(OCC2CC2)cc(C(=O)NCC2CCN(c3ccnc(-c4ccc5[nH]ncc5c4)n3)CC2)c1 [Example 19E, N-((1-(2-(1H-indazol-5-yl)pyrimidin-4-yl)piperidin-4-yl)methyl)-3-(cyclopropylmethoxy)-5-methoxybenzamide]
